Eight compounds from patent US5919765A, “Inhibitors of factor XA” (COR Therapeutics, Inc., priority 1995, dated 1999) can be followed below.

Each structure is given as a SMILES string. Numbered stars: 1 amine (or outer) side, 2 acyl side, 3 side chain; on linkers, the order of the positions; unused ones are H or OH. Square brackets hold non-standard residues; d marks the D form. Peptide text beside a SMILES is read from it. * marks the point of attachment. dCit = NC(=O)NCCC[C@@H](N)C(=O)O; Suc = O=C(CCC(=O)[*:2])[*:1]; Boc = CC(C)(C)OC(=O)*; Aib = CC(C)(N)C(=O)O Some results are limits rather than exact numbers.

By IC50 is commonly meant the point on the concentration scale where inhibition reaches its midpoint.

One data set concerns the target T1, thrombin (Homo sapiens, UniProt P00734).
T1 construct: The formation of thrombin is the result of the proteolytic cleavage of its precursor prothrombin
The data set can be described thus: Thrombin amidolytic assay (chromogenic substrate Chromozym TH). In kind it is biochemical. As to conditions: read-out: Inhibitory Activity (IC50) Thrombin.

Data set [1] has as its system Rabbits. The data set can be described thus: Rabbit deep vein thrombosis model. Type of data set: in vivo. From the text:
Haemost. […] Rabbits were anesthetized with I.M. injections of Ketamine, Xylazine, and Acepromazine cocktail.

For data set [2], the system named is Rabbits. Briefly: Cuticle Bleeding Time model in rabbits. Type of data set: in vivo, rabbit. Conditions: 1500 μg/kg+14.85 μg/kg/min. The procedure: In an ancillary study, a Cuticle Bleeding Time model was used to evaluate the effect of test compounds on bleeding time (BT) measurements in rabbits. The standardized protocol involved anesthesia and catheterization of rabbits as previously described in this Example 43. To measure BT, a toe nail was cut 5 mm from the base of the cuticle with a canine nail trimming device. Time until cessation of bleeding was recorded by wicking the blood on to BT blotting paper in 30 second intervals. Test compound was administered as a bolus followed by infusion regimen. Two BT measurements were obtained prior to administration of test compound and three BT measurements accomplished serially after initiation of steady state infusion of test compound. BT measurements were allowed to continue for up to 30 minutes at which time it was stopped with application of silver nitrate. Blood samples were obtained just prior to all BT measurements and processed for measurement of hematological and coagulation parameters.

[3] abbreviates: rabbit venous thrombosis model, bolus + infusion.

On to `N=C(N)NCCC[C@@H](C=O)NC(=O)CNC(=O)[C@@H](CCCNC(=N)N)NC(=O)CC(=O)O` [HOOCCH2 CO--D--Arg--Gly--Arg--H, Malonoyl-D-Arg-Gly-Arg--H], for which the IC50 at thrombin is above 100 µM.

`CC(C)(C)OC(=O)N[C@H](CCCCN)C(=O)NCC(=O)N[C@H](C=O)CCCNC(=N)N` [Boc--D--Lys--Gly--Arg--H, Boc-D-Lys-Gly-Arg--H] (Boc-[dK]-Gly-Arg-aldehyde): the IC50 at thrombin is above 100 µM.

With `CC(C)(C)OC(=O)N[C@H](CCCNC(=N)N)C(=O)NCC(=O)N[C@H](C=O)CCCNC(=N)N` [Boc--D--Arg--Gly--Arg--H, Boc-D-Arg-Gly-Arg--H] (Boc-[dR]-Gly-Arg-aldehyde), the “% Inhibition of Thrombosis” value in the data set with Rabbits [1] (200 + 1.98 μg/kg + μg/kg/min) is 8.4%; in the data set on Rabbits [1] (600 + 5.94 μg/kg + μg/kg/min), -6.6%. Further, the antithrombotic efficacy entry in the data set on Rabbits [1] (setting [3]) is listed as “demonstrated antithrombotic efficacy at the higher doses evaluated”.

For the compound `CC(C)(C)OC(=O)N[C@H](CCCNC(=N)N)C(=O)NC(C)(C)C(=O)N[C@H](C=O)CCCNC(=N)N` [Boc--D--Arg--Aib--Arg--H, Boc-D-Arg-Aib-Arg--H] (Boc-[dR]-[Aib]-Arg-aldehyde), the IC50 on thrombin is above 500 µM.

With `CCOC(=O)N[C@H](CCCNC(=N)N)C(=O)NCC(=O)N[C@H](C=O)CCCNC(=N)N` [EtOCO--D--Arg--Gly--Arg--H, EtO2 C-D-Arg-Gly-Arg--H], the IC50 on thrombin is above 100 µM.

Take `CC(C)(C)OC(=O)N[C@H](CCCN=C(N)N)C(=O)NCC(=O)N[C@H](C=O)CCCN=C(N)N` [Boc--D--Arg--Gly--Arg--H, Boc-D-Arg-Gly-Arg--H] (Boc-[dR]-Gly-Arg-aldehyde): the “changes in hematological parameters from pre to post administration” value in the data set with Rabbits [2] is on record as “no significant changes”. Moreover, the “effects on hematological parameters as compared to saline controls” value in the data set on Rabbits [1] (setting [3]) was “no significant effects”.

In the case of `CC(C)(C)OC(=O)N[C@H](CCCNC(N)=O)C(=O)NCC(=O)N[C@H](C=O)CCCNC(=N)N` [Boc--D--Cit--Gly--Arg--H, Boc-D-Cit-Gly-Arg--H] (Boc-[dCit]-Gly-Arg-aldehyde), the IC50 at thrombin was above 100 µM.

For `N=C(N)NCCC[C@@H](C=O)NC(=O)CNC(=O)[C@@H](CCCNC(=N)N)NC(=O)CCC(=O)O` [HOOC(CH2)2 CO--D--Arg--Gly--Arg--H, Succinoyl-D-Arg-Gly-Arg--H] (Suc-[dR]-Gly-Arg-aldehyde), at thrombin, the IC50 was above 100 µM.
